Assay results from article PMC6934184, “Selective DNA-PKcs inhibition extends the therapeutic index of localized radiotherapy and chemotherapy” (The Journal of Clinical Investigation, 2019).

Molecular target: T1, HIPK2 (Homo sapiens, UniProt Q9H2X6)
T1 construct: purchased Thermo Fisher Scientific (Life Technologies) SelectScreen
Test: SelectScreen Z'LYTE
Format: biochemical
Procedure, shortened: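 NU5455 was profiled across the SelectScreen Broad panel of kinase activity and binding assays. Z'LYTE reactions such as CSF1R ran at apparent Km ATP, while the Adapta CAMK1 assay used ATP listed as 10. Values are given as percent.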

T1 sequence (Q9H2X6 whole entry): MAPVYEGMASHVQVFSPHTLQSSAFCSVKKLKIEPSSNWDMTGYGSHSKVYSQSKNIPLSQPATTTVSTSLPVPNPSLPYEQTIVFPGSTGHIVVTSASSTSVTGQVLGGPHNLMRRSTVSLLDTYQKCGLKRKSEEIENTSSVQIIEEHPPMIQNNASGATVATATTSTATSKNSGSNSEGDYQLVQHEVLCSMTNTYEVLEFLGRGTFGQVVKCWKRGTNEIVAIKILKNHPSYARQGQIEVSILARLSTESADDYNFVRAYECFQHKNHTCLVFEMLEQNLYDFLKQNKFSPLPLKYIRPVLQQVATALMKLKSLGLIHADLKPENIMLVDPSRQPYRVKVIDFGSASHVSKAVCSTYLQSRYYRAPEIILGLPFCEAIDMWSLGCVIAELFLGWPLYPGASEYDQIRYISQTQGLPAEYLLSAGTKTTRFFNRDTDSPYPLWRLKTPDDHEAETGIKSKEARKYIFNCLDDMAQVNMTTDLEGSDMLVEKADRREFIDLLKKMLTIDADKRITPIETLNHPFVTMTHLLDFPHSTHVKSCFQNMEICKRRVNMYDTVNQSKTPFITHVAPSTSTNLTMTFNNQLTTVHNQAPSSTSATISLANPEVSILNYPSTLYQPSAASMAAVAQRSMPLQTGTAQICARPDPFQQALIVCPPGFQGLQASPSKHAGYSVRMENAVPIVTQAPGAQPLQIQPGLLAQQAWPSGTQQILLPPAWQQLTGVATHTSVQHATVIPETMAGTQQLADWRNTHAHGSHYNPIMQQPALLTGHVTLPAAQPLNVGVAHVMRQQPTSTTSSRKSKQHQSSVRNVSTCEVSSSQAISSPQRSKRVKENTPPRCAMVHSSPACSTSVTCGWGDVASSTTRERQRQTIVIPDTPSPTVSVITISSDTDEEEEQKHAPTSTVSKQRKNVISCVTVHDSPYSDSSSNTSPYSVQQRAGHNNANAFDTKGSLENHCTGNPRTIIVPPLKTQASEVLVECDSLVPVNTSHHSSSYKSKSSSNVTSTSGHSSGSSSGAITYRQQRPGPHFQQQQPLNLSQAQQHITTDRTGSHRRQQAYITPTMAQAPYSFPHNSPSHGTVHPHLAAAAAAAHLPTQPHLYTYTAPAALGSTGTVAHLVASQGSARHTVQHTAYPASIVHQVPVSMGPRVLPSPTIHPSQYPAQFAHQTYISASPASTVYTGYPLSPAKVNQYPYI

`CN(C(=O)CN1CCOCC1)c1ccc2sc3c(-c4cccc5c(=O)cc(N6CC7CCC(C6)O7)oc45)cccc3c2c1` [NU5455] gave an inhibition at 1 µM of 7.8%.
